Results from paper PMC4508061, “Selectivity Profiling and Biological Activity of Novel β-Carbolines as Potent and Selective DYRK1 Kinase Inhibitors” (PLoS ONE, 2015).

Key:
[1] = target: PYK2 (Homo sapiens, UniProt Q14289); test: ProQinase radiometric kinase panel; settings: mean of 2 exp.
[2] = target: ACV-R1B (Homo sapiens, UniProt P36896); test: ProQinase radiometric kinase panel; settings: mean of 2 exp.
[3] = target: SRMS (Homo sapiens, UniProt Q9H3Y6); test: ProQinase radiometric kinase panel; settings: mean of 2 exp.
[4] = target: HIPK2 (Homo sapiens, UniProt Q9H2X6); test: ProQinase radiometric kinase panel; settings: mean of 2 exp.
[5] = target: COT (Homo sapiens, UniProt P41279); test: ProQinase radiometric kinase panel; settings: mean of 2 exp.
COT, sequence (P41279 whole entry): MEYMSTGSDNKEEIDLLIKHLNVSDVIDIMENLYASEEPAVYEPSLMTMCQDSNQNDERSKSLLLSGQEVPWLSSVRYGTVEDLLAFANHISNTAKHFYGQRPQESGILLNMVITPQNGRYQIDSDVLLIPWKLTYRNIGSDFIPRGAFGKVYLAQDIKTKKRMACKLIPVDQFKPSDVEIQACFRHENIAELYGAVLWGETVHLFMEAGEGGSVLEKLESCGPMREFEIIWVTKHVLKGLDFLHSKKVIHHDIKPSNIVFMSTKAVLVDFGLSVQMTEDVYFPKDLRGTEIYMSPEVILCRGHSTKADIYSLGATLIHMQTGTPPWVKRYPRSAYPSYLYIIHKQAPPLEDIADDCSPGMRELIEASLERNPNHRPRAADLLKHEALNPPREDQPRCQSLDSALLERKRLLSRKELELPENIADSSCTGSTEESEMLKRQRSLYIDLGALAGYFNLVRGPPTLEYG

[6] = target: NEK3 (Homo sapiens, UniProt P51956); test: ProQinase radiometric kinase panel; settings: mean of 2 exp.
NEK3, sequence (P51956 whole entry): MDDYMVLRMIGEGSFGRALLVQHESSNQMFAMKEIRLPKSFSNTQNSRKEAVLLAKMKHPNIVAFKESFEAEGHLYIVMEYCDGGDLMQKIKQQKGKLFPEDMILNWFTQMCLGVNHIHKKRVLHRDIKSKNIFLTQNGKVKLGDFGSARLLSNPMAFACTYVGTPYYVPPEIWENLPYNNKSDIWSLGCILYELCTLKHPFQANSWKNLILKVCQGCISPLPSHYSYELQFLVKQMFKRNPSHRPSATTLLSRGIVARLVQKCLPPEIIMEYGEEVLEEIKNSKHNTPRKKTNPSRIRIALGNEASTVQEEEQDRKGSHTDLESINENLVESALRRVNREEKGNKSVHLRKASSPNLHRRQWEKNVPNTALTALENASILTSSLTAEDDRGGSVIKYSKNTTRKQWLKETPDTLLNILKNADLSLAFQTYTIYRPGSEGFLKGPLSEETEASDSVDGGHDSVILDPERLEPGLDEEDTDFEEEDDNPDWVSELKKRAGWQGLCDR

[7] = system: HeLa cells; test: Cell viability XTT assay; format: cell-based; settings: up to 10 μM, 3 days
[8] = Cell viability XTT assay; format: cell-based; settings: human, HeLa cells, read-out: Viability of treated cells relative to untreated control
[9] = target: CHK2 (Homo sapiens, UniProt O96017); test: ProQinase radiometric kinase panel; settings: mean of 2 exp.
[10] = target: FES (Homo sapiens, UniProt P07332); test: ProQinase radiometric kinase panel; settings: mean of 2 exp.
[11] = target: ACV-R2B (Homo sapiens, UniProt Q13705); test: ProQinase radiometric kinase panel; settings: mean of 2 exp.
[12] = target: DNA-PK (Homo sapiens, UniProt P78527); test: ProQinase radiometric kinase panel; settings: mean of 2 exp.
[13] = target: DAPK3 (Homo sapiens, UniProt O43293); test: ProQinase radiometric kinase panel; settings: mean of 2 exp.
[14] = target: HRI (Homo sapiens, UniProt Q9BQI3); test: ProQinase radiometric kinase panel; settings: mean of 2 exp.
[15] = target: TGFB-R2 (Homo sapiens, UniProt P37173); test: ProQinase radiometric kinase panel; settings: mean of 2 exp.
TGFB-R2, sequence (P37173 23-567): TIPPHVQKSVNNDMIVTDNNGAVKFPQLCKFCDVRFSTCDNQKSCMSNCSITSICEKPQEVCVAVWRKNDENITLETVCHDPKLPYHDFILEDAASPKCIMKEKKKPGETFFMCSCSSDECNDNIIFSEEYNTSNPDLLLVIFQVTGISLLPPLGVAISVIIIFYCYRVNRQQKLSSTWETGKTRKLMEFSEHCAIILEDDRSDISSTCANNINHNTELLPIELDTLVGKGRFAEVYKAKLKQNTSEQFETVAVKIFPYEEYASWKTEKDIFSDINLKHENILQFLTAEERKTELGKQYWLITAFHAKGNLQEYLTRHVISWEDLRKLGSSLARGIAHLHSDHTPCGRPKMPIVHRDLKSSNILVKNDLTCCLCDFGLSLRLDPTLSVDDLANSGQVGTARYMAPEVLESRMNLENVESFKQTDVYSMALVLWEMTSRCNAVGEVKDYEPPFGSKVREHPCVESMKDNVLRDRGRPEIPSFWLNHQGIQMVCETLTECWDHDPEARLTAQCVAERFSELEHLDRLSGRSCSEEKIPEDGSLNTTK

[16] = target: MARK4 (Homo sapiens, UniProt Q96L34); test: ProQinase radiometric kinase panel; settings: mean of 2 exp.
[17] = target: TAOK2 (Homo sapiens, UniProt Q9UL54); test: ProQinase radiometric kinase panel; settings: mean of 2 exp.
[18] = target: PKC-epsilon (Homo sapiens, UniProt Q02156); test: ProQinase radiometric kinase panel; settings: mean of 2 exp.
[19] = target: MATK (Homo sapiens, UniProt P42679); test: ProQinase radiometric kinase panel; settings: mean of 2 exp.
[20] = target: AMPK-alph1 (Homo sapiens, UniProt Q13131); test: ProQinase radiometric kinase panel; settings: mean of 2 exp.
[21] = target: FLT3 (Homo sapiens, UniProt P36888); test: ProQinase radiometric kinase panel; settings: mean of 2 exp.
[22] = target: EPHA5 (Homo sapiens, UniProt P54756); test: ProQinase radiometric kinase panel; settings: mean of 2 exp.
[23] = target: JNK3 (Homo sapiens, UniProt P53779); test: ProQinase radiometric kinase panel; settings: mean of 2 exp.
Description: Gini coefficients were calculated and the Lorenz curve (Fig 3B) was plotted by applying the Microsoft Excel spreadsheet provided by Graczyk [44].
radiometric protein kinase assays.

[24] = target: CDK8/CycC (Homo sapiens, UniProt P49336); test: ProQinase radiometric kinase panel; settings: mean of 2 exp.
[25] = target: FGF-R4 (Homo sapiens, UniProt P22455); test: ProQinase radiometric kinase panel; settings: mean of 2 exp.
[26] = target: TBK1 (Homo sapiens, UniProt Q9UHD2); test: ProQinase radiometric kinase panel; settings: mean of 2 exp.
[27] = target: GSG2 (Haspin) (Homo sapiens, UniProt Q8TF76); test: ProQinase radiometric kinase panel; settings: mean of 2 exp.
GSG2 (Haspin), sequence (Q8TF76 whole entry): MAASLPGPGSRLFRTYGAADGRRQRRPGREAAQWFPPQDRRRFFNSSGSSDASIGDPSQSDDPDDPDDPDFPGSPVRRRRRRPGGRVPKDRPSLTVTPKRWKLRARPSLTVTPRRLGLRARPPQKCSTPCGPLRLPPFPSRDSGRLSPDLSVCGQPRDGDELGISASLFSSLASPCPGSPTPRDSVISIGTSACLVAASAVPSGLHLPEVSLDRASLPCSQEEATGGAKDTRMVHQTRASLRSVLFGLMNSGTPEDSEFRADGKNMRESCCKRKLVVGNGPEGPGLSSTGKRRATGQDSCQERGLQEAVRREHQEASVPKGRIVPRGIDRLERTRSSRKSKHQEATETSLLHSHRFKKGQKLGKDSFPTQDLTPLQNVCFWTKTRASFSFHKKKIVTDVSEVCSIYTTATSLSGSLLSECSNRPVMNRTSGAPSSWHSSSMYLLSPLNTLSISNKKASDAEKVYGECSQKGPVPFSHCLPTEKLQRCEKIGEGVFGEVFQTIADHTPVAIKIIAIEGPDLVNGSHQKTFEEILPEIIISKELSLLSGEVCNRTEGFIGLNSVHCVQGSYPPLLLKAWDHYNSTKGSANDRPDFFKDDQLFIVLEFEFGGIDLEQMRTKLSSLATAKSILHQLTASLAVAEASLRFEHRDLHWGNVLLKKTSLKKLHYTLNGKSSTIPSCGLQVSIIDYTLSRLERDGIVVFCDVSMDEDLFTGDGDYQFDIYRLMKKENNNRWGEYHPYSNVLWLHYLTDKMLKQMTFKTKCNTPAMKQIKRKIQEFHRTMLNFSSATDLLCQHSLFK

[28] = target: PKC-beta1 (Homo sapiens, UniProt P05771); test: ProQinase radiometric kinase panel; settings: mean of 2 exp.
[29] = target: TTK (Homo sapiens, UniProt P33981); test: ProQinase radiometric kinase panel; settings: mean of 2 exp.
[30] = target: MEK2 (Homo sapiens, UniProt P36507); test: ProQinase radiometric kinase panel; settings: mean of 2 exp.
[31] = target: Aurora-C (Homo sapiens, UniProt Q9UQB9); test: ProQinase radiometric kinase panel; settings: mean of 2 exp.
Aurora-C, sequence (Q9UQB9 whole entry): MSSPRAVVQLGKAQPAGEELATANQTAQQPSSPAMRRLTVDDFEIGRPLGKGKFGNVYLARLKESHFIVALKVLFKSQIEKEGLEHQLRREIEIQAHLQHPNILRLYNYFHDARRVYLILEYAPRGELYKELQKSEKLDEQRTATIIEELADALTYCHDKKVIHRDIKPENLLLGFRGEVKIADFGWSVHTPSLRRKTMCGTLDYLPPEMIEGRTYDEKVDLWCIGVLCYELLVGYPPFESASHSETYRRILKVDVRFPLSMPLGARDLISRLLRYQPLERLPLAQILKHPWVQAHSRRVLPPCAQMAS

[32] = target: S6K (Homo sapiens, UniProt P23443); test: ProQinase radiometric kinase panel; settings: mean of 2 exp.
S6K, sequence (P23443 whole entry): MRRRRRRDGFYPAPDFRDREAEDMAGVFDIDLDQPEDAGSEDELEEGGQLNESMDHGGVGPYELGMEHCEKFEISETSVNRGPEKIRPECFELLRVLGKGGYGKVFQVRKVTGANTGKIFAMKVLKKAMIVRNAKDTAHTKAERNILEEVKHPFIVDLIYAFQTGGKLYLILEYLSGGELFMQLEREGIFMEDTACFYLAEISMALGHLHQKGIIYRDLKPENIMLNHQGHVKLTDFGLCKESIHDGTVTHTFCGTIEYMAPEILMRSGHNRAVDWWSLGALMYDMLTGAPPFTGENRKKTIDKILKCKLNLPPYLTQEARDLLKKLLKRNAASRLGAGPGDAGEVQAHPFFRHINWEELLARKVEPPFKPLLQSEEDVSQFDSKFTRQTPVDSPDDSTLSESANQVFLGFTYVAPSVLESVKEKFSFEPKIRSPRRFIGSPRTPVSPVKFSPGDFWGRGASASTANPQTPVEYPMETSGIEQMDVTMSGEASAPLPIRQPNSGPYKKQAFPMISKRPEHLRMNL

[33] = target: MARK1 (Homo sapiens, UniProt Q9P0L2); test: ProQinase radiometric kinase panel; settings: mean of 2 exp.
MARK1, sequence (Q9P0L2 whole entry): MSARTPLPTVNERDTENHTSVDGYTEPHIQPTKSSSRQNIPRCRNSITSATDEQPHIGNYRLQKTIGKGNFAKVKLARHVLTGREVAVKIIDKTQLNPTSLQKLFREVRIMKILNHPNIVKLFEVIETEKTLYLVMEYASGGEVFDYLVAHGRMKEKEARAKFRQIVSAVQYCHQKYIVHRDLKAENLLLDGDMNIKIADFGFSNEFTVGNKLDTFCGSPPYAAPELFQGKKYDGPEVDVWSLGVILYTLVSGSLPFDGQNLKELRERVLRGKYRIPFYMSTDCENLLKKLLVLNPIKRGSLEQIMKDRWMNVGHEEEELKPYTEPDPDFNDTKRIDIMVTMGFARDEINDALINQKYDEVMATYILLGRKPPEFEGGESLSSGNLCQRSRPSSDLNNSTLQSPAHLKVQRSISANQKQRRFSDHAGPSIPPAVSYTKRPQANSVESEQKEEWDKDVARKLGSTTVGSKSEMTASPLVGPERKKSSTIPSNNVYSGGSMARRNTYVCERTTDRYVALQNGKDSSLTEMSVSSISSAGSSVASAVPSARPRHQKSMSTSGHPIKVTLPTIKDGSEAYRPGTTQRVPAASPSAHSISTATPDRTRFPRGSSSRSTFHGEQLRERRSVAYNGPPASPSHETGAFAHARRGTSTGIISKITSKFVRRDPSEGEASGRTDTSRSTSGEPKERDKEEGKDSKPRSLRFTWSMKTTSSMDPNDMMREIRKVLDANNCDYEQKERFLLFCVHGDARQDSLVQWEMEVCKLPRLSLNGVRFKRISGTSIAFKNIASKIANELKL

[34] = target: NLK (Homo sapiens, UniProt Q9UBE8); test: ProQinase radiometric kinase panel; settings: mean of 2 exp.
[35] = target: MAP4K5 (Homo sapiens, UniProt Q9Y4K4); test: ProQinase radiometric kinase panel; settings: mean of 2 exp.
[36] = target: CK2-alpha1 (Homo sapiens, UniProt P68400); test: ProQinase radiometric kinase panel; settings: mean of 2 exp.
CK2-alpha1, sequence (P68400 whole entry): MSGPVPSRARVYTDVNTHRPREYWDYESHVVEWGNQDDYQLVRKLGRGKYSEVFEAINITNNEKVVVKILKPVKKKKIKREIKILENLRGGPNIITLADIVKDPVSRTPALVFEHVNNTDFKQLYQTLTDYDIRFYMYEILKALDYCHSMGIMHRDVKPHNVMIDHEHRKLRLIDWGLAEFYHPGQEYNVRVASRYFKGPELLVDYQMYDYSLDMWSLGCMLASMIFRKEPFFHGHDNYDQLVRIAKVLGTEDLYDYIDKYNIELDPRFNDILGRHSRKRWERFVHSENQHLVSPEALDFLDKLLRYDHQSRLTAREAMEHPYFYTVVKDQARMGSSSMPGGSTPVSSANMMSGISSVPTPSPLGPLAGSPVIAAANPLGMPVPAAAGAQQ

[37] = target: CDK9/CycT1 (Homo sapiens, UniProt P50750); test: ProQinase radiometric kinase panel; settings: mean of 2 exp.
[38] = target: RPS6KA5 (Homo sapiens, UniProt O75582); test: ProQinase radiometric kinase panel; settings: mean of 2 exp.
[39] = target: LTK (Homo sapiens, UniProt P29376); test: ProQinase radiometric kinase panel; settings: mean of 2 exp.

ACV-R1B, sequence (P36896 24-505): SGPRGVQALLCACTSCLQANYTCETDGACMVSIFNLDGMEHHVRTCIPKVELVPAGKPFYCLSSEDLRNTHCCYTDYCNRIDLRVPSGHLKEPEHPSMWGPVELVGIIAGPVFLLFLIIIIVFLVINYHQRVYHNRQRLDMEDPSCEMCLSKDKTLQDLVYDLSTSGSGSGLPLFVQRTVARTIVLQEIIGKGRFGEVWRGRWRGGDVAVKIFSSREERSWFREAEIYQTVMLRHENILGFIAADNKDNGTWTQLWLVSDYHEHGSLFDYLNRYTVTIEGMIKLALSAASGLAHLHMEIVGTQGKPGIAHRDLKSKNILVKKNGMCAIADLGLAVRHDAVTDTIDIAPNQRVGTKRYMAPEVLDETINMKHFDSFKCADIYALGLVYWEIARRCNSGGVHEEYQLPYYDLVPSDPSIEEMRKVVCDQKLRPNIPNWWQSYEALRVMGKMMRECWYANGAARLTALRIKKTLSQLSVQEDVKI

## COc1ccc2c3ccnc(Cl)c3n(CC#N)c2c1 [AnnH75]
[1]
  residual activity at 1 µM, Mean: 110 % of control
[2]
  residual activity at 1 µM, Mean: 97 % of control
[3]
  residual activity at 1 µM, Mean: 92 % of control
[4]
  residual activity at 1 µM, Mean: 87 % of control
[5]
  residual activity at 1 µM, Mean: 88 % of control
[6]
  residual activity at 1 µM, Mean: 91 % of control
[7]
  cytotoxicity: minimal cytotoxicity
[8]; 1 μM
  viability at 3 days, 1 µM: 100%
[8]; 3 μM
  viability at 3 days, 3 µM: 93%
[9]
  residual activity at 1 µM, Mean: 102 % of control
[10]
  residual activity at 1 µM, Mean: 93 % of control
[11]
  residual activity at 1 µM, Mean: 97 % of control
[12]
  residual activity at 1 µM, Mean: 63 % of control
[13]
  residual activity at 1 µM, Mean: 98 % of control
[14]
  residual activity at 1 µM, Mean: 101 % of control
[15]
  residual activity at 1 µM, Mean: 83 % of control
[16]
  residual activity at 1 µM, Mean: 104 % of control
[17]
  residual activity at 1 µM, Mean: 98 % of control
[18]
  residual activity at 1 µM, Mean: 39 % of control
[19]
  residual activity at 1 µM, Mean: 102 % of control
[20]
  residual activity at 1 µM, Mean: 92 % of control
[21]
  residual activity at 1 µM, Mean: 70 % of control
[22]
  residual activity at 1 µM, Mean: 84 % of control
[23]
  residual activity at 1 µM, Mean: 82 % of control
[24]
  residual activity at 1 µM, Mean: 18 % of control
[25]
  residual activity at 1 µM, Mean: 98 % of control
[26]
  residual activity at 1 µM, Mean: 94 % of control
[27]
  residual activity at 1 µM, Mean: 5 % of control
[28]
  residual activity at 1 µM, Mean: 93 % of control
[29]
  residual activity at 1 µM, Mean: 91 % of control
[30]
  residual activity at 1 µM, Mean: 37 % of control
[31]
  residual activity at 1 µM, Mean: 97 % of control
[32]
  residual activity at 1 µM, Mean: 85 % of control
[33]
  residual activity at 1 µM, Mean: 101 % of control
[34]
  residual activity at 1 µM, Mean: 92 % of control
[35]
  residual activity at 1 µM, Mean: 84 % of control
[36]
  residual activity at 1 µM, Mean: 96 % of control
[37]
  residual activity at 1 µM, Mean: 85 % of control
[38]
  residual activity at 1 µM, Mean: 96 % of control
[39]
  residual activity at 1 µM, Mean: 99 % of control
